Measured values: patent publication US20240294551A1 (AMGEN INC., priority 2022, published 2024)
pIC50: −log10 of the molar value. Like-named read-outs stand apart in the source and are kept apart here.

Legend:
AsPC-1 cells = assay: AsPC-1 CTG Assay (CellTiter-Glo cell viability); format: cell-based, human; settings: first value of the cell, read-out: G12D/C/V Cell Proliferation CTG (72 h) AsPC-1
Description: AsPC-1 and SW620 CTG Assay Protocols
AsPC-1 (human pancreatic adenocarcinoma; ATCC CRL-1682) or SW620 (human colon adenocarcinoma; ATCC CCL-227) cells were cultured in RPMI 1640 medium containing 10% fetal bovine serum and 1× penicillin/streptomycin/L-glutamine. Cells were seeded in 384-well plates at a density of 3.33E+04 cells/mL and incubated at 37° C., 5% CO2, overnight. Serially-diluted compound or DMSO was added to the cells, and plates were incubated at 37° C., 5% CO2 for 72 h. Cell viability was measured using a CellTiter-Glo® Luminescent Cell Viability Assay kit (Promega) according to the manufacturer's protocol. The luminescence signal of treated samples was normalized to DMSO control, and data were analyzed using a 4-parameter logistic model to calculate IC50 values.

[1] = system: Phosphorylation of ERK1/2 in AsPC-1 cells; assay: Phospho-ERK1/2 MSD Assay; format: cell-based, human
Outline: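 Read-out: MSD electrochemiluminescent detection of phosphorylated ERK1/2 in whole-cell lysates, fitted to a 4-parameter logistic curve for IC50. Prior to lysis, AsPC-1 cells (25,000 per well) received a 2 h compound dose-response at 37 °C.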

[2] = target: GDP-bound KRAS protein (aa 1-169), containing both G12D and C118A amino acid substitutions (Homo sapiens (Human), UniProt P01116, C118A/G12D); assay: KRAS G12D Coupled Nucleotide Exchange Assay; format: biochemical
[3] = target: His-tagged KRAS G12D protein (Homo sapiens (Human), UniProt P01116, G12D); assay: KRAS G12D TR-FRET Assay; format: binding
Outline: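 Each incubation ran at room temperature: enzyme with compound for 30 minutes, peptide for one hour, and detection reagents (0.4 nM europium anti-6×His, 5 nM streptavidin-d2) for one hour more. Protein and peptide stocks were each diluted to 20 nM before addition.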

[4] = Homo sapiens, ASPC1, 72 h, AsPC-1, 72 h
[5] = Homo sapiens, ASPC1, 2 h, read-out: 2 h p-ERK (AsPC-1 cells), IC50
[6] = read-out: KRAS G12D Coupled Exchange IC50
[7] = read-out: KRAS G12D Binding IC50
[8] = Homo sapiens, ASPC1, 72 h, AsPC-1 cells (G12D), 72 h
[9] = Homo sapiens, ASPC1, 2 h, read-out: 2 h p-ERK (AsPC-1 cells)
[10] = 2 hours compound pre-incubation, read-out: KRAS G12D Coupled Exchange
[11] = TR-FRET, read-out: KRAS G12D Binding
[12] = 2 h, read-out: 2 h p-ERK (AsPC-1 cells), IC50

Chain of GDP-bound KRAS protein (aa 1-169), containing both G12D and C118A amino acid substitutions (P01116 other isoform, or with tags, fused parts or gaps G12D/C118A): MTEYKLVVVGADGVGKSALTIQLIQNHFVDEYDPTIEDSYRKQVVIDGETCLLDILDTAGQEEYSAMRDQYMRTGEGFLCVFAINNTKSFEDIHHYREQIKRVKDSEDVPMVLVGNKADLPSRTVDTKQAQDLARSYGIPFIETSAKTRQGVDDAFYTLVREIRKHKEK
Chain of His-tagged KRAS G12D protein (P01116 other isoform, or with tags, fused parts or gaps G12D): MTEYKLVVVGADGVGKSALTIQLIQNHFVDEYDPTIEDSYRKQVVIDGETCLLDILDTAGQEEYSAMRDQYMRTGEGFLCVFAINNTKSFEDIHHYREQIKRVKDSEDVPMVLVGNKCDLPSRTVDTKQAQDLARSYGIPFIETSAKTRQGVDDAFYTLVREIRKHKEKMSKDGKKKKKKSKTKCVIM

Row | SMILES | pIC50 (AsPC-1 cells; [4]) | pIC50 [1, 5] | pIC50 [2, 6] | pIC50 [3, 7] | pIC50 (AsPC-1 cells; [8]) | pIC50 [1, 9] | pIC50 [2, 10] | pIC50 [3, 11] | pIC50 (AsPC-1 cells; AsPC-1, 72 h) | pIC50 [1, 12]
1 | O=C1OCCc2c(Cl)cc3[nH]ncc3c2-c2cc3nc(OC[C@@]45CCCN4C[C@H](F)C5)nc(c3nn2)N2CCC[C@]3(C2)C[C@H](C3)O1 [Example 357, (1R,3S)-10-chloro-24-(((2R,7aS)-2-fluorotetrahydro-1H-pyrrolo[1,2-a]pyrrol-7a(5H)-yl)methoxy)-4,6-dioxa-13,14,19,20,23,25,27-heptaazaheptacyclo[25.3.1.1~1,3~.1~18,22~.0~9,17~.0~12,16~.0~21,26~]tritriaconta-9,11,14,16,18(32),19,21,23,25-nonaen-5-one] | 5.71 | 6.63 | 8.00 | 7.85 |  |  |  |  |  | 
2 | Cc1cc2[nH]ncc2c2c1CCCCC(=O)N[C@@H]1CCCCN(C1)c1nc(OC[C@@]34CCCN3C[C@H](F)C4)nc3c(F)c-2ncc13 [Example 54, (26R)-32-fluoro-4-(((2R,7aS)-2-fluorotetrahydro-1H-pyrrolo[1,2-a]pyrrol-7a(5H)-yl)methoxy)-18-methyl-1,3,5,9,14,15,25-heptaazahexacyclo[24.4.1.1~6,10~.0~2,7~.0~11,19~.0~12,16~]dotriaconta-2,4,6,8,10(32),11,13,16,18-nonaen-24-one] | 5.79 | 6.87 | 8.52 | 8.22 |  |  |  |  |  | 
3 | Cc1cc2[nH]ncc2c2c1CCCCC(=O)N1CC[C@@H]3CCN(C[C@@H]31)c1nc(OC[C@@]34CCCN3C[C@H](F)C4)nc3c(F)c-2ncc13 (mixture of isomers) [Example 63] | 6.34 | 7.23 | 8.70 | 8.05 |  |  |  |  |  | 
4 | Fc1c2ncc3c(nc(OC[C@@]45CCCN4C[C@H](F)C5)nc13)N1CCCCC(C1)c1noc(n1)CCCc1c(Cl)cc3[nH]ncc3c1-2 (mixture of isomers) [Example 382] |  |  |  |  | 5.83 | 7.77 | 8.52 | 8.30 |  | 
5 | Fc1c2ncc3c(nc(OC[C@@]45CCCN4C[C@H](F)C5)nc13)N1CCO[C@@H](Cc3ncc(o3)CCc3c(Cl)cc4[nH]ncc4c3-2)C1 [Example 374] |  |  |  |  | 6.90 | 7.49 | 8.40 | 8.30 |  | 
6 | O=C1N[C@H]2C[C@@]3(CCCN(C3)c3nc(OC[C@@]45CCCN4C[C@H](F)C5)nc4c(F)c(ncc34)-c3c(c(Cl)cc4[nH]ncc34)CCO1)C2 [Example 289, 10-chloro-32-fluoro-24-(((2R,7aS)-2-fluorotetrahydro-1H-pyrrolo[1,2-a]pyrrol-7a(5H)-yl)methoxy)-6-oxa-4,13,14,19,23,25,27-heptaazaheptacyclo[25.3.1.1~1,3~.1~18,22~.0~9,17~.0~12,16~.0~21,26~]tritriaconta-9,11,14,16,18(32),19,21,23,25-nonaen-5-one] | 6.21 | 6.96 | 8.22 | 8.00 |  |  |  |  |  | 
7 | Fc1c2ncc3c(nc(OC[C@@]45CCCN4C[C@H](F)C5)nc13)N1CCC[C@H](C1)c1noc(n1)CCCc1c(Cl)cc3[nH]ncc3c1-2 [Example 247, (18R)-9-chloro-31-fluoro-25-(((2R,7aS)-2-fluorotetrahydro-1H-pyrrolo[1,2-a]pyrrol-7a(5H)-yl)methoxy)-15-oxa-5,6,16,22,24,26,30,33-octaazaheptacyclo[25.3.1.1~14,17~.1~18,22~.0~2,10~.0~3,7~.0~23,28~]tritriaconta-1(31),2,4,7,9,14(33),16,23,25,27,29-undecaene] | 6.35 | 7.51 | 8.30 | 8.05 |  |  |  |  |  | 
8 | C[C@@H]1CN(c2nc3c4cnc(c(F)c4n2)-c2c(c(Cl)cc4[nH]ncc24)CCCOC(=O)O[C@@H]2COCCN3C2)CCN1 [Example 348, (26S)-18-chloro-32-fluoro-4-((3R)-3-methyl-1-piperazinyl)-23,25,28-trioxa-1,3,5,9,14,15-hexaazahexacyclo[24.4.1.1~6,10~.0~2,7~.0~11,19~.0~12,16~]dotriaconta-2,4,6,8,10(32),11,13,16,18-nonaen-24-one] | 5.65 | 6.53 | 8.40 | 7.89 |  |  |  |  |  | 
9 | Cc1cc2[nH]ncc2c2c1CCCOC(=O)CC1CCCN(C1)c1nc(OC[C@@]34CCCN3C[C@H](F)C4)nc3c(F)c-2ncc13 (some centres unmarked) [Example 39] |  |  | 8.10 | 7.92 |  |  |  |  | 6.72 | 7.80
10 | O=C1CCCCc2c(Cl)cc3[nH]ncc3c2-c2ncc3c(nc(OC[C@@]45CCCN4C[C@H](F)C5)nc3c2F)N2CCOCC(C2)C1O (mixture of isomers) [Example 384] |  |  |  |  | 6.96 | 7.65 | 8.22 | 8.00 |  | 
11 | Cc1cc2[nH]ncc2c2c1C[C@@H](C)CCOC[C@@H]1CCCN(C1)c1nc(OC[C@@]34CCCN3C[C@H](F)C4)nc3c(F)c-2ncc13 [Example 250, (12R,17R)-30-fluoro-24-(((2R,7aS)-2-fluorotetrahydro-1H-pyrrolo[1,2-a]pyrrol-7a(5H)-yl)methoxy)-9,12-dimethyl-15-oxa-5,6,21,23,25,29-hexaazahexacyclo[24.3.1.1~17,21~.0~2,10~.0~3,7~.0~22,27~]hentriaconta-1(30),2,4,7,9,22,24,26,28-nonaene] | 5.97 | 6.89 | 8.22 | 7.89 |  |  |  |  |  | 
12 | Cc1cc2[nH]ncc2c2c1CCOC(=O)O[C@H]1C[C@]3(CCCN(C3)c3nc(OC[C@@]45CCCN4C[C@H](F)C5)nc4c(F)c-2ncc34)C1 [Example 193, (1R,3S)-32-fluoro-24-(((2R,7aS)-2-fluorotetrahydro-1H-pyrrolo[1,2-a]pyrrol-7a(5H)-yl)methoxy)-10-methyl-4,6-dioxa-13,14,19,23,25,27-hexaazaheptacyclo[25.3.1.1~1,3~.1~18,22~.0~9,17~.0~12,16~.0~21,26~]tritriaconta-9,11,14,16,18(32),19,21,23,25-nonaen-5-one] | 7.22 | 7.62 | 7.62 | 7.31 |  |  |  |  |  | 
13 | O=C1OCCCc2c(Cl)cc3[nH]ncc3c2-c2ncc3c(nc(OC[C@@]45CCCN4C[C@H](F)C5)nc3c2F)N2CCOCC3(CC(C3)O1)C2 [Example 313] | 5.92 | 6.34 | 7.96 | 7.72 |  |  |  |  |  | 
14 | Cc1c2ncc3c(nc(OC[C@@]45CCCN4C[C@H](F)C5)nc13)N1CCOC[C@H](C1)OC(=O)OCCCc1c(Cl)cc3[nH]ncc3c1-2 (atropisomer, axis not shown) [Example 342, (26S)-18-chloro-4-(((2R,7aS)-2-fluorotetrahydro-1H-pyrrolo[1,2-a]pyrrol-7a(5H)-yl)methoxy)-32-methyl-23,25,28-trioxa-1,3,5,9,14,15-hexaazahexacyclo[24.4.1.1~6,10~.0~2,7~.0~11,19~.0~12,16~]dotriaconta-2,4,6,8,10(32),11,13,16,18-nonaen-24-one] |  |  | 7.64 | 7.33 |  |  |  |  | 5.51 | 6.48
15 | O=C1OC[C@H]2C[C@@H]2c2c(Cl)cc3[nH]ncc3c2-c2ncc3c(nc(OC[C@@]45CCCN4C[C@H](F)C5)nc3c2F)N2CCC[C@H](C2)O1 (mixture of isomers) [Example 113] | 5.93 | 6.96 | 8.52 | 8.00 |  |  |  |  |  | 
16 | O=C1OCCc2c(Cl)cc3[nH]ncc3c2-c2ncc3c(nc(OC[C@@]45CCCN4C[C@@H](F)C5)nc3c2F)N2CCC[C@]3(C2)C[C@H](C3)O1 [Example 350, (1R,3S)-10-chloro-32-fluoro-24-(((2S,7aS)-2-fluorotetrahydro-1H-pyrrolo[1,2-a]pyrrol-7a(5H)-yl)methoxy)-4,6-dioxa-13,14,19,23,25,27-hexaazaheptacyclo[25.3.1.1~1,3~.1~18,22~.0~9,17~.0~12,16~.0~21,26~]tritriaconta-9,11,14,16,18(32),19,21,23,25-nonaen-5-one] | 6.26 | 7.24 | 8.52 | 8.22 |  |  |  |  |  | 
17 | O=C1CCCCc2c(Cl)cc3[nH]ncc3c2-c2ncc3c(nc(OC[C@@]45CCCN4C[C@H](F)C5)nc3c2F)N2CC[C@@H]3[C@H](C2)N1CC3(F)F [Example 403, (28R,32R)-18-chloro-27,27,33-trifluoro-4-(((2R,7aS)-2-fluorotetrahydro-1H-pyrrolo[1,2-a]pyrrol-7a(5H)-yl)methoxy)-1,3,5,9,14,15,25-heptaazaheptacyclo[23.5.2.1~6,10~.0~2,7~.0~11,19~.0~12,16~.0~28,32~]tritriaconta-2,4,6,8,10(33),11,13,16,18-nonaen-24-one] |  |  |  |  | 6.19 | 6.74 | 8.70 | 8.52 |  | 
